Reference: patent US4728509A, “Aqueous liquid preparation” (Takeda Chemical Industries, Ltd., priority 1985, dated 1988)
In brackets after ≈: the same amount, converted by molar mass. Like-named read-outs stand apart in the source and are kept apart here.

What was measured:
[1] = Solubility test of compound (a) with and without solubilizers (Experimental Example 1; HPLC of filtrate); settings: phosphate buffer, Solubility of Compound (a), 48 hours
Experimental: Solubility tests of the compound (a) (2-amino-7-isopropyl-5-oxo-5H-[1]-benzopyrano[2,3-b]pyridine-3-carboxylic acid) employing the solubilizers of this invention and, for comparison, employing various conventional solubilizers were performed.
The solubility was measured by the following manner:
An excess amount of the compound (a) was added to a given volume of a phosphate buffer, the mixture was sufficiently stirred, then the pH was adjusted to a given level, the mixture was allowed to stand at room temperature (25° C.) for 48 hours, the resultant was subjected to filtration with 0.45μ membrane filter, followed by measuring the concentration of the compound (a) in the filtrate by means of high performance liquid chromatography.

[2] = Stability test of compound (a) in solution, remaining ratio at 60° C. (Experimental Example 2); type: physicochemical; settings: phosphate buffer, pH 7.5±0.1; for remaining at 1344 h: 60° C. after 8 weeks
Experimental: The stability of the compound (a) was tested by the following manner.
At first, the stability of the compound (a) without any adjuvant was tested for comparison.
Two samples were prepared by dissolving 100 mg and 250 mg each portion of the compound (a) in phosphate buffer. To each of the solutions was added a solution of sodium hydroxide to adjust the pH to 7.5±0.1, followed by addition of purified water to make the whole volume 100 ml, provided that the solution of 2.5 mg/ml was prepared at 40° C. Each solution was filled in a glass bottle, which was stored at 60° C. for evaluation of the stability.
The results were shown in Table 2 as remaining ratio (%).
Next, the effect of improving the stability of the compound (a), when a solubilizer of this invention was added to the solution containing the compound (a), was examined.
To each sample was added a given amount of a solubilizer as specified in the table, followed by working up in a similar manner to the above (pH 7.5±0.1) for evaluation of the stability.
The results were shown in Table 3 as remaining ratio (%).

[3] = Solubility of compound (a); type: physicochemical

SMILES: CC(C)c1ccc2oc3nc(N)c(C(=O)O)cc3c(=O)c2c1 [Compound (a), 2-amino-7-isopropyl-5-oxo-5H-[1]-benzopyrano[2,3-b]pyridine-3-carboxylic acid]
- solubility at 48 h ([1]; pH 6, aqueous buffer, Caffeine 5 mg/ml, pH 6.0, 25° C.): 660 µg/mL (≈ 2.21 mM)
- solubility at 48 h ([1]; pH 6, aqueous buffer, Caffeine 10 mg/ml, pH 6.0, 25° C.): 1650 µg/mL (≈ 5.53 mM)
- solubility at 48 h ([1]; pH 6, aqueous buffer, Control, no solubilizer, pH 6.0, 25° C.): 20 µg/mL (≈ 0.067 mM)
- solubility at 48 h ([1]; pH 6, aqueous buffer, Polyvinylpyrrolidone (average molecular weight 40000) 10 mg/ml, pH 6.0, 25° C.): 120 µg/mL (≈ 0.402 mM)
- solubility at 48 h ([1]; pH 6, aqueous buffer, Polyvinylpyrrolidone (average molecular weight 40000) 50 mg/ml, pH 6.0, 25° C.): 320 µg/mL (≈ 1.07 mM)
- solubility at 48 h ([1]; pH 6, aqueous buffer, Polyvinylpyrrolidone (average molecular weight 40000) 100 mg/ml, pH 6.0, 25° C.): 1590 µg/mL (≈ 5.33 mM)
- solubility at 48 h ([1]; pH 6, aqueous buffer, Sodium benzoate 20 mg/ml, pH 6.0, 25° C.): 40 µg/mL (≈ 0.134 mM)
- solubility at 48 h ([1]; pH 6, aqueous buffer, Tween 80 10 mg/ml, pH 6.0, 25° C.): 80 µg/mL (≈ 0.268 mM)
- solubility at 48 h ([1]; pH 6, aqueous buffer, β-Cyclodextrin 10 mg/ml, pH 6.0, 25° C.): 720 µg/mL (≈ 2.41 mM)
- solubility at 48 h ([1]; pH 6.5, aqueous buffer, Caffeine 5 mg/ml, pH 6.5, 25° C.): 1500 µg/mL (≈ 5.03 mM)
- solubility at 48 h ([1]; pH 6.5, aqueous buffer, Caffeine 10 mg/ml, pH 6.5, 25° C.): 2670 µg/mL (≈ 8.95 mM)
- solubility at 48 h ([1]; pH 6.5, aqueous buffer, Control, no solubilizer, pH 6.5, 25° C.): 80 µg/mL (≈ 0.268 mM)
- solubility at 48 h ([1]; pH 6.5, aqueous buffer, Isoniazid 10 mg/ml, pH 6.5, 25° C.): 850 µg/mL (≈ 2.85 mM)
- solubility at 48 h ([1]; pH 6.5, aqueous buffer, Nicotinic acid amide 10 mg/ml, pH 6.5, 25° C.): 820 µg/mL (≈ 2.75 mM)
- solubility at 48 h ([1]; pH 6.5, aqueous buffer, Polyvinylpyrrolidone (average molecular weight 40000) 10 mg/ml, pH 6.5, 25° C.): 420 µg/mL (≈ 1.41 mM)
- solubility at 48 h ([1]; pH 6.5, aqueous buffer, Polyvinylpyrrolidone (average molecular weight 40000) 50 mg/ml, pH 6.5, 25° C.): 1230 µg/mL (≈ 4.12 mM)
- solubility at 48 h ([1]; pH 6.5, aqueous buffer, Polyvinylpyrrolidone (average molecular weight 40000) 100 mg/ml, pH 6.5, 25° C.): 4630 µg/mL (≈ 15.5 mM)
- solubility at 48 h ([1]; pH 6.5, aqueous buffer, Sodium benzoate 20 mg/ml, pH 6.5, 25° C.): 290 µg/mL (≈ 0.972 mM)
- solubility at 48 h ([1]; pH 6.5, aqueous buffer, Tween 80 10 mg/ml, pH 6.5, 25° C.): 470 µg/mL (≈ 1.58 mM)
- solubility at 48 h ([1]; pH 6.5, aqueous buffer, β-Cyclodextrin 10 mg/ml, pH 6.5, 25° C.): 1400 µg/mL (≈ 4.69 mM)
- solubility at 48 h ([1]; pH 7, aqueous buffer, Caffeine 5 mg/ml, pH 7.0, 25° C.): 3720 µg/mL (≈ 12.5 mM)
- solubility at 48 h ([1]; pH 7, aqueous buffer, Caffeine 10 mg/ml, pH 7.0, 25° C.): 7050 µg/mL (≈ 23.6 mM)
- solubility at 48 h ([1]; pH 7, aqueous buffer, Control, no solubilizer, pH 7.0, 25° C.): 330 µg/mL (≈ 1.11 mM)
- solubility at 48 h ([1]; pH 7, aqueous buffer, Isoniazid 10 mg/ml, pH 7.0, 25° C.): 1330 µg/mL (≈ 4.46 mM)
- solubility at 48 h ([1]; pH 7, aqueous buffer, Nicotinic acid amide 10 mg/ml, pH 7.0, 25° C.): 1210 µg/mL (≈ 4.06 mM)
- solubility at 48 h ([1]; pH 7, aqueous buffer, Polyvinylpyrrolidone (average molecular weight 40000) 10 mg/ml, pH 7.0, 25° C.): 1060 µg/mL (≈ 3.55 mM)
- solubility at 48 h ([1]; pH 7, aqueous buffer, Polyvinylpyrrolidone (average molecular weight 40000) 50 mg/ml, pH 7.0, 25° C.): 3230 µg/mL (≈ 10.8 mM)
- solubility at 48 h ([1]; pH 7, aqueous buffer, Polyvinylpyrrolidone (average molecular weight 40000) 100 mg/ml, pH 7.0, 25° C.): 10000 µg/mL (≈ 33.7 mM)
- solubility at 48 h ([1]; pH 7, aqueous buffer, Sodium benzoate 20 mg/ml, pH 7.0, 25° C.): 420 µg/mL (≈ 1.41 mM)
- solubility at 48 h ([1]; pH 7, aqueous buffer, β-Cyclodextrin 10 mg/ml, pH 7.0, 25° C.): 2300 µg/mL (≈ 7.71 mM)
- solubility at 48 h ([1]; pH 7.5, aqueous buffer, Caffeine 5 mg/ml, pH 7.5, 25° C.): 7440 µg/mL (≈ 24.9 mM)
- solubility at 48 h ([1]; pH 7.5, aqueous buffer, Caffeine 10 mg/ml, pH 7.5, 25° C.): 9210 µg/mL (≈ 30.9 mM)
- solubility at 48 h ([1]; pH 7.5, aqueous buffer, Control, no solubilizer, pH 7.5, 25° C.): 1050 µg/mL (≈ 3.52 mM)
- solubility at 48 h ([1]; pH 7.5, aqueous buffer, Isoniazid 10 mg/ml, pH 7.5, 25° C.): 1560 µg/mL (≈ 5.23 mM)
- solubility at 48 h ([1]; pH 7.5, aqueous buffer, Nicotinic acid amide 10 mg/ml, pH 7.5, 25° C.): 1530 µg/mL (≈ 5.13 mM)
- solubility at 48 h ([1]; pH 7.5, aqueous buffer, Polyvinylpyrrolidone (average molecular weight 40000) 10 mg/ml, pH 7.5, 25° C.): 3150 µg/mL (≈ 10.6 mM)
- solubility at 48 h ([1]; pH 7.5, aqueous buffer, Polyvinylpyrrolidone (average molecular weight 40000) 50 mg/ml, pH 7.5, 25° C.): 10400 µg/mL (≈ 34.7 mM)
- solubility at 48 h ([1]; pH 7.5, aqueous buffer, Polyvinylpyrrolidone (average molecular weight 40000) 100 mg/ml, pH 7.5, 25° C.): 18500 µg/mL (≈ 61.9 mM)
- solubility at 48 h ([1]; pH 7.5, aqueous buffer, Sodium benzoate 20 mg/ml, pH 7.5, 25° C.): 1060 µg/mL (≈ 3.55 mM)
- solubility at 48 h ([1]; pH 7.5, aqueous buffer, Tween 80 10 mg/ml, pH 7.5, 25° C.): 1180 µg/mL (≈ 3.96 mM)
- solubility at 48 h ([1]; pH 7.5, aqueous buffer, β-Cyclodextrin 10 mg/ml, pH 7.5, 25° C.): 4390 µg/mL (≈ 14.7 mM)
- remaining at 168 h ([2]; pH 7.5, compound (a) 1.0 mg/ml, PVP (MW 40,000) 20 mg/ml, 60° C. after 1 week): 99.5%
- remaining at 336 h ([2]; pH 7.5, compound (a) 1.0 mg/ml, PVP (MW 40,000) 20 mg/ml, 60° C. after 2 weeks): 99.2%
- remaining at 672 h ([2]; pH 7.5, compound (a) 1.0 mg/ml, PVP (MW 40,000) 20 mg/ml, 60° C. after 4 weeks): 98.4%
- remaining at 1344 h ([2]; pH 7.5, compound (a) 1.0 mg/ml, PVP (MW 40,000) 20 mg/ml): 98.1%
- remaining at 168 h ([2]; pH 7.5, compound (a) 2.5 mg/ml, PVP (MW 40,000) 50 mg/ml, 60° C. after 1 week): 98.9%
- remaining at 336 h ([2]; pH 7.5, compound (a) 2.5 mg/ml, PVP (MW 40,000) 50 mg/ml, 60° C. after 2 weeks): 99.5%
- remaining at 672 h ([2]; pH 7.5, compound (a) 2.5 mg/ml, PVP (MW 40,000) 50 mg/ml, 60° C. after 4 weeks): 99.1%
- remaining at 1344 h ([2]; pH 7.5, compound (a) 2.5 mg/ml, PVP (MW 40,000) 50 mg/ml): 97%
- remaining at 168 h ([2]; pH 7.5, compound (a) 5.0 mg/ml, PVP (MW 40,000) 10 mg/ml + caffeine 10 mg/ml, 60° C. after 1 week): 98.9%
- remaining at 336 h ([2]; pH 7.5, compound (a) 5.0 mg/ml, PVP (MW 40,000) 10 mg/ml + caffeine 10 mg/ml, 60° C. after 2 weeks): 99.5%
- remaining at 672 h ([2]; pH 7.5, compound (a) 5.0 mg/ml, PVP (MW 40,000) 10 mg/ml + caffeine 10 mg/ml, 60° C. after 4 weeks): 98.1%
- remaining at 1344 h ([2]; pH 7.5, compound (a) 5.0 mg/ml, PVP (MW 40,000) 10 mg/ml + caffeine 10 mg/ml): 98.2%
- remaining at 168 h ([2]; pH 7.5, compound (a) 10.0 mg/ml, PVP (MW 40,000) 50 mg/ml + β-CD 10 mg/ml, 60° C. after 1 week): 98.7%
- remaining at 336 h ([2]; pH 7.5, compound (a) 10.0 mg/ml, PVP (MW 40,000) 50 mg/ml + β-CD 10 mg/ml, 60° C. after 2 weeks): 100%
- remaining at 672 h ([2]; pH 7.5, compound (a) 10.0 mg/ml, PVP (MW 40,000) 50 mg/ml + β-CD 10 mg/ml, 60° C. after 4 weeks): 98.3%
- remaining at 1344 h ([2]; pH 7.5, compound (a) 10.0 mg/ml, PVP (MW 40,000) 50 mg/ml + β-CD 10 mg/ml): 97.3%
- remaining at 672 h ([2]; pH 7.5, no adjuvant, compound (a) 1.0 mg/ml, 60° C. after four weeks): 85.4%
- remaining at 168 h ([2]; pH 7.5, no adjuvant, compound (a) 1.0 mg/ml, 60° C. after one week): 99.2%
- remaining at 336 h ([2]; pH 7.5, no adjuvant, compound (a) 1.0 mg/ml, 60° C. after two weeks): 97.2%
- remaining at 672 h ([2]; pH 7.5, no adjuvant, compound (a) 2.5 mg/ml, 60° C. after four weeks): 66.8%
- remaining at 168 h ([2]; pH 7.5, no adjuvant, compound (a) 2.5 mg/ml, 60° C. after one week): 92.1%
- remaining at 336 h ([2]; pH 7.5, no adjuvant, compound (a) 2.5 mg/ml, 60° C. after two weeks): 80.5%
- amount of compound (a) dissolved by the aqueous liquid preparation of this invention ([3]; aqueous liquid preparation of this invention, pH 7.2-7.8): ≥ 3 mg/mL
- solubility ([3]; neutral to alkaline region (pH 7.2-7.8), read-out: solubility): ~1100 µg/mL (≈ 3.69 mM)
- solubility ([3]; water, 25° C., read-out: solubility in water): ~10 µg/mL (≈ 0.0335 mM)
- solubility ([3]; water, pH 7.5, cold chamber (5° C.), read-out: solubility in water): 300 µg/mL (≈ 1.01 mM)
